These results are taken from US10203330B2, “Methods and materials for identifying and treating mammals having lung adenocarcinoma characterized by neuroendocrine differentiation” (Mayo Foundation for Medical Education and Research, priority 2013, dated 2019).

Common to all, as to assay type: cell-based
The subject of one data set is ASCL1. Briefly: ASCL1 knock down in HCC1833 cells, ASCL1 and RET expression. The conditions noted are these: HCC1833 cells transfected with the construct, FIG. 13 left. The text has this:
Two cell lines are used to confirm the effectiveness of drugs for treating lung adenocarcinoma characterized by neuroendocrine differentiation. The first is the HCC1833 cell line, which was derived from lung AD and has high expression levels of ASCL1 and RET. The second in the A549 cell line which has low endogenous expression of ASCL1 and is stably transfected with ASCL1 (A549-As^+). A549-As^+ captures salient features of ASCL1^+ lung AD from patients, including increased expression of RET. HCC1833 are stably transfected with ASCL1 siRNA to knock down ASCL1 and produce a HCC1833-AsKD cell line. Lowering ASCL1 expression leads to low levels of RET expression.
(§1) The HCC1833 adenocarcinoma cell line expressed high endogenous levels of ASCL1 and RET (FIG. 13, left). […] In addition, STAT3 expression (in JAK/STAT3 pathway) went down.

The test system of another data set is HCC1833 cells. Nature of the data set: Filling the gap scratch assay. As to conditions: HCC1833 cells transfected with ASCL1 shRNA versus wild-type and control vector cells, day 3, FIG. 14; listed as ASCL1-sh2.
Description: FIG. 14 contains photographs of cells from a filling the gap scratch assay (see, e.g., Liang et al., Nature Protocols, 2:329-333 (2007)).
as §1

Data set [1] concerns A549 cells and A549-ASCL1 cells. Briefly: Clonogenic number of A549 and A549-ASCL1 cells after cisplatin treatment. The conditions noted are these: ASCL1 over-expressing cells versus cells not expressing ASCL1; 0, 3 or 9 μM cisplatin for 14 days, FIG. 15.

“Also recorded” adds a separate entry of the source.

In the case of “sh2: a small interfering RNA construct that includes: CAACCGCGTCAAGTTGGTCAA (SEQ ID NO:2) (listed as DNA, chemistry not given here)”, in the data set with ASCL1, the ASCL1 expression result is given as “reduced ASCL1 expression” and the RET expression entry is “reduced”. Further, in the data set on HCC1833 cells, the “ability to fill the gap (migration capacity)” value is reported as “much slower ability to filling the gap; also recorded: did not fill as much of the gap”.

`N.N.[Cl][Pt][Cl]` [cisplatin]: in data set [1], the “remaining clonogenic potential after cisplatin treatment” value is “higher than in cells that did not express ASCL1”.

For “sh1: a small interfering RNA construct that includes: GCCAACAAGAAGATGAGTAAG (SEQ ID NO: 1) (listed as DNA, chemistry not given here)”, in the data set on ASCL1, the ASCL1 expression result was “reduced ASCL1 expression” and the RET expression result is on record as “reduced”.
